Reference: patent publication US20100056524A1, “Compound” (priority 2008, published 2010)
Where a name gives a salt, the structure may show the parent alone. Read-outs that look alike come from different tables or passages of the source.

Experiments:
[1] = biological target: T1, ERK1 (Homo sapiens, UniProt P27361); assay: ERK1 protein kinase assay; assay type: biochemical; conditions: for remaining activity at 1 µM: 1 μM compound; for remaining activity at 10 µM: 10 μM compound; for residual kinase activity ERK1: 1 μm compound
T1 construct: All protein kinases were of human origin and encoded full length proteins, unless indicated otherwise; GST; made in house; host or cells: E. coli
T1 sequence (P27361 whole entry): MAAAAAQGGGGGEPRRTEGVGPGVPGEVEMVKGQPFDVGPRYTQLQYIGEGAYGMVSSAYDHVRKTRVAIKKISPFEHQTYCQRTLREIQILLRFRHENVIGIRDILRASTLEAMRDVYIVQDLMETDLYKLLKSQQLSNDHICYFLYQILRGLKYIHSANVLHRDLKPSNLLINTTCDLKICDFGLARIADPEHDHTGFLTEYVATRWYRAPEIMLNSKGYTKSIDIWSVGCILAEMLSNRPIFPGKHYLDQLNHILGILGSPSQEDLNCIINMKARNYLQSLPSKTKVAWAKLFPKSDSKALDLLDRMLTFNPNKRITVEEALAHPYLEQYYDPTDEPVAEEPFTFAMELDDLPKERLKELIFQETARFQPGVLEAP
Text: (§1) All protein kinases were of human origin and encoded full length proteins, unless indicated otherwise. They were either expressed as glutathione S-transferase (GST) fusion proteins in Escherichia Coli or as hexahistidine (His6)-tagged proteins in insect Sf21 cells. GST fusion proteins were purified by affinity chromatography on glutathione-Sepharose, and His6-tagged proteins on nickel/nitriloacetate-agarose. The procedures for expressing some of the protein kinases used herein have been detailed previously.^8,9 The following sections outline the DNA vectors synthesised and the procedures used to express and purifying protein kinases that have not been reported previously.
(§2) The following proteins were expressed in E. coli: —CHK2[5-543], cyclin-dependent protein kinase 2 (CDK2), MAP kinase-interacting kinase 2 (MNK2), extra-cellular signal-regulated kinase 1 (ERK1).
(§3) In order to produce activated forms of Aurora B and Aurora C, insect Sf21 cells were incubated for 1 h with the protein phosphatase inhibitor okadaic acid (50 nM). JNK isoforms were activated with MKK4 and MKK7, MNK2 with p38α MAPkinase; PKBα, PKBβ, with PDK1, and ERK1 with MKK1. To activate CDK2, bacterial pellets expressing cyclin A2 and CDK2 were mixed together, lyse and purified on glutathione Sepharose. The GST-tags were removed by cleavage with PreScission protease and the CDK2-cyclin A2 complex purified by chromatography on SP-Sepharose. It was then activated with CAK1/CDK7 followed by chromatography on nickel-nitrilotriacetate agarose to remove CAK1/CDK7, which binds to this column by virtue of its C-terminal His6 tag. All the other protein kinases were active as expressed.
(§4) All assays (25.5 μl) were carried out at room temperature (21° C.) and were linear with respect to time and enzyme concentration under the conditions used. Assays were performed for 30 min using Multidrop Micro reagent dispensers (Thermo Electron Corporation, Waltham, Mass. 02454, USA) in a 96-well format. The concentration of magnesium acetate in the assays was 10 mM and the [γ-33P] ATP (800 cpm/pmol) was used at 5, 20 or 50 μM as indicated, in order to be at or below the Km for ATP for each enzyme. Protein kinases assayed at 5 μM ATP were: —ERK1, ERK8, PKBα, MARK3, Aurora C. Protein kinases assayed at 20 μM ATP were: —JNK1, PDK1, CHK1, CHK2, CDK2 and Aurora B. Protein kinases assayed at 50 μM ATP were: —MNK2, IKKepsilon and TBK1.
(§5) The assays were initiated with MgATP, stopped by addition of 5 μl of 0.5 M orthophosphoric acid and spotted on to P81 filterplates using a unifilter harvester (PerkinElmer, Boston, Mass. 02118, USA). The IC50 values of inhibitors were determined after carrying out assays at 10 different concentrations of each compound.
(§6) ERK1 and ERK8 were both assayed against myelin basic protein (MBP, 0.33 mg/ml). MARK3 was assayed against the peptide […] (300 μM), MNK2 against the eIF4E protein (0.5 mg/ml). PKBβ was assayed against the peptide […] (30 μM). TBK1 were assayed against ([…]) (300 μM). The substrates used for other protein kinases were described previously.^8,9
(§7) Unless stated otherwise, enzymes were diluted in 50 mM Tris/HCl pH 7.5, 0.1 mM EGTA, 1 mg/ml BSA, 0.1% (v/v) 2-mercaptoethanol and assayed in 50 mM Tris/HCl pH 7.5, 0.1 mM EGTA, 0.1% (v/v) 2-mercaptoethanol.

[2] = biological target: T2, YES1 (Homo sapiens, UniProt P07947); assay: YES1 protein kinase assay; assay type: biochemical; conditions: for remaining activity at 1 µM: 1 μM compound; for remaining activity at 10 µM: 10 μM compound; for residual kinase activity YES1: 1 μm compound
T2 construct: All protein kinases were of human origin and encoded full length proteins, unless indicated otherwise; made in house
T2 sequence (P07947 whole entry): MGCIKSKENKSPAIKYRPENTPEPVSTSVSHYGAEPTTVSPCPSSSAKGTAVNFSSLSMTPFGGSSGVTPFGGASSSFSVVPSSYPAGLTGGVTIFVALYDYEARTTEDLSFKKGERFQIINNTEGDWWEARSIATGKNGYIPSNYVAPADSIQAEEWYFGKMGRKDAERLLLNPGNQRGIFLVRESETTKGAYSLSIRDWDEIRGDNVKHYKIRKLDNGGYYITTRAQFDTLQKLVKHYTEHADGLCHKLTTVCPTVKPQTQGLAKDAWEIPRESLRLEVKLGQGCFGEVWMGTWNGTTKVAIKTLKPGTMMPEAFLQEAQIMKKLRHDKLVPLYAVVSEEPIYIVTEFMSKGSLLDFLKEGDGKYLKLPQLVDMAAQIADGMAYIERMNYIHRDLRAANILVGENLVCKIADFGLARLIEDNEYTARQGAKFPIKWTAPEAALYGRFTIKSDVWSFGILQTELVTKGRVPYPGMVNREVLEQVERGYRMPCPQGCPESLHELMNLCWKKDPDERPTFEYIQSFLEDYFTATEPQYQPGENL
Text: as §1, §4, §5, §7

[3] = biological target: T3, P38b MAPK (Homo sapiens, UniProt Q15759); assay: P38b MAPK protein kinase assay; assay type: biochemical; conditions: for remaining activity at 1 µM: 1 μM compound; for remaining activity at 10 µM: 10 μM compound; for residual kinase activity P38b MAPK: 1 μm compound
T3 construct: All protein kinases were of human origin and encoded full length proteins, unless indicated otherwise; made in house
T3 sequence (Q15759 whole entry): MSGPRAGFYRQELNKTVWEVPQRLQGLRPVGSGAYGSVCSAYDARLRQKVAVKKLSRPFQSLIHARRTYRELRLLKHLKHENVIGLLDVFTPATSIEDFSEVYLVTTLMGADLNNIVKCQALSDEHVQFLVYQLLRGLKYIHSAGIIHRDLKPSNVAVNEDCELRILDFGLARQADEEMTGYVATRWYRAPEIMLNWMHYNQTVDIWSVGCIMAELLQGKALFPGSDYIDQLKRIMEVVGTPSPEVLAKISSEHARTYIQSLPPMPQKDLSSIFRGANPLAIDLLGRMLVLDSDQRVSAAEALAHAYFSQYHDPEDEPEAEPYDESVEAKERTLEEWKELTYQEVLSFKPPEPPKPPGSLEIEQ
Text: as §1, §4, §5, §7

[4] = biological target: T4, SGK1 (Homo sapiens, UniProt O00141, S422D); assay: SGK1 protein kinase assay; assay type: biochemical; conditions: for remaining activity at 1 µM: 1 μM compound; for remaining activity at 10 µM: 10 μM compound; for residual kinase activity SGK1: 1 μm compound
T4 construct: All protein kinases were of human origin and encoded full length proteins, unless indicated otherwise; made in house
T4 sequence (O00141 60-431 S422D limits assumed): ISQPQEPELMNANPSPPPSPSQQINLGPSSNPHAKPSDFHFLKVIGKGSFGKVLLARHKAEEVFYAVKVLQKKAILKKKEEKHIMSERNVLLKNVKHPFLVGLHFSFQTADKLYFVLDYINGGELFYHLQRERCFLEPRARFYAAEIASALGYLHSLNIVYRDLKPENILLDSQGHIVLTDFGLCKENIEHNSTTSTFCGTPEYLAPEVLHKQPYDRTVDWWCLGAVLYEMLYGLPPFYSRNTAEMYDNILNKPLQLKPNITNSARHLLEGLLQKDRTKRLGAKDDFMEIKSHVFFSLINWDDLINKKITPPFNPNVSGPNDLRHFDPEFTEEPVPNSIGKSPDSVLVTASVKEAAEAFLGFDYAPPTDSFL
Text: as §1, §4, §5, §7

[5] = biological target: T5, PAK6 (Homo sapiens, UniProt Q9NQU5); assay: PAK6 protein kinase assay; assay type: biochemical; conditions: for remaining activity at 1 µM: 1 μM compound; for remaining activity at 10 µM: 10 μM compound; for residual kinase activity PAK6: 1 μm compound
T5 construct: All protein kinases were of human origin and encoded full length proteins, unless indicated otherwise; made in house
T5 sequence (Q9NQU5 whole entry): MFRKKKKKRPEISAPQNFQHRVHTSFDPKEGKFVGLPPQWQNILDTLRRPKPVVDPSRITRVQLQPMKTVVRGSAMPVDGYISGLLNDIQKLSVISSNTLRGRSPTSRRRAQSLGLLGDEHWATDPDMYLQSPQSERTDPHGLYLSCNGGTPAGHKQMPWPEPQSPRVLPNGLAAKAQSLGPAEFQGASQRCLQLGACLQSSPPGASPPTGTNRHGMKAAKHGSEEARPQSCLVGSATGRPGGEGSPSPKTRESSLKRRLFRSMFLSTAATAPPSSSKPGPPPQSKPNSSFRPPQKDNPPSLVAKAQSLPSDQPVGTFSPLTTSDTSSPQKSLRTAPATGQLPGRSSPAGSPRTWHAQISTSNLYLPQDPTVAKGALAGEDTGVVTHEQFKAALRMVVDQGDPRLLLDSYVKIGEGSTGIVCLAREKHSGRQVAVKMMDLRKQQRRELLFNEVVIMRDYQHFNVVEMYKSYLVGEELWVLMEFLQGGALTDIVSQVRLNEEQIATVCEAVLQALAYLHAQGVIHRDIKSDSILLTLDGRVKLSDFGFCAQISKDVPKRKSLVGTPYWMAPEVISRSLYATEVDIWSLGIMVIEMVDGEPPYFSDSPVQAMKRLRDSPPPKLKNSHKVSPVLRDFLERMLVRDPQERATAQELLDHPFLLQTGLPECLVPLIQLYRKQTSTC
Text: as §1, §4, §5, §7

[6] = biological target: T6, MNK2 (Homo sapiens, UniProt Q9HBH9); assay: MNK2 protein kinase assay; assay type: biochemical; conditions: for remaining activity at 1 µM: 1 μM compound; for remaining activity at 10 µM: 10 μM compound; for residual kinase activity MNK2: 1 μm compound
T6 construct: All protein kinases were of human origin and encoded full length proteins, unless indicated otherwise; GST; made in house; host or cells: E. coli
T6 sequence (Q9HBH9 whole entry): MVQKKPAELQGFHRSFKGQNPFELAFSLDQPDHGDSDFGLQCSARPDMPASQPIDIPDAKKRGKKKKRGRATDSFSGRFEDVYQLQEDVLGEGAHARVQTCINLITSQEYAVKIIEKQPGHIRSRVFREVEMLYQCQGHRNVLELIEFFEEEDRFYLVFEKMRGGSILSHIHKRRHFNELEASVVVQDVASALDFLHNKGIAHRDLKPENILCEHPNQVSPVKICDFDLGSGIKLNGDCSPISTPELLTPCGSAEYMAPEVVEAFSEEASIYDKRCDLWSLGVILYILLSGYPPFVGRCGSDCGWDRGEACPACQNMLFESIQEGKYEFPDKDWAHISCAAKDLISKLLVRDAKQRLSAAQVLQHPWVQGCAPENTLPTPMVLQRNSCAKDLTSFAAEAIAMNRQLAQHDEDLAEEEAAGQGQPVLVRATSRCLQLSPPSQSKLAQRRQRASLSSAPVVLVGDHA
Text: as §1, §2, §3, §4, §5, §6, §7

[7] = biological target: T7, MNK1 (Homo sapiens, UniProt Q9BUB5); assay: MNK1 protein kinase assay; assay type: biochemical; conditions: for remaining activity at 1 µM: 1 μM compound; for remaining activity at 10 µM: 10 μM compound; for residual kinase activity MNK1: 1 μm compound
T7 construct: All protein kinases were of human origin and encoded full length proteins, unless indicated otherwise; made in house
T7 sequence (Q9BUB5 whole entry): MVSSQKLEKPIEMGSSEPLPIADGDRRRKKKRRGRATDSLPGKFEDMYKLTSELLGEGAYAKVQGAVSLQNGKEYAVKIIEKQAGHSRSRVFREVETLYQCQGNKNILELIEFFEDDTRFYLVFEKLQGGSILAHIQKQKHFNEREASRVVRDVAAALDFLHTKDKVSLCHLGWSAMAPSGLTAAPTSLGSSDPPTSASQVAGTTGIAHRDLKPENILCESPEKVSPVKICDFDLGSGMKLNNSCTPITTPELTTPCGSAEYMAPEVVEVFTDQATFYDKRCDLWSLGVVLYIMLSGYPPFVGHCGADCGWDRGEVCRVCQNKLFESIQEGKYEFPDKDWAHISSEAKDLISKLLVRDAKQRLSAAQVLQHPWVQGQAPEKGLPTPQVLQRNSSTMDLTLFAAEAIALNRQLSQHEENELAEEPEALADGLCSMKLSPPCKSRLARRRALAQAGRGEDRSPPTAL
Text: as §1, §4, §5, §7

[8] = system: IR-HIS; assay: IR-HIS protein kinase assay; assay type: biochemical, human; conditions: for residual kinase activity: IR-HIS
Text: as §1, §4, §5, §7

[9] = biological target: T8, HIPK2 (Homo sapiens, UniProt Q9H2X6); assay: HIPK2 protein kinase assay; assay type: biochemical; conditions: for remaining activity at 1 µM: 1 μM compound; for remaining activity at 10 µM: 10 μM compound; for residual kinase activity HIPK2: 1 μm compound
T8 construct: All protein kinases were of human origin and encoded full length proteins, unless indicated otherwise; made in house
T8 sequence (Q9H2X6 165-564 limits assumed): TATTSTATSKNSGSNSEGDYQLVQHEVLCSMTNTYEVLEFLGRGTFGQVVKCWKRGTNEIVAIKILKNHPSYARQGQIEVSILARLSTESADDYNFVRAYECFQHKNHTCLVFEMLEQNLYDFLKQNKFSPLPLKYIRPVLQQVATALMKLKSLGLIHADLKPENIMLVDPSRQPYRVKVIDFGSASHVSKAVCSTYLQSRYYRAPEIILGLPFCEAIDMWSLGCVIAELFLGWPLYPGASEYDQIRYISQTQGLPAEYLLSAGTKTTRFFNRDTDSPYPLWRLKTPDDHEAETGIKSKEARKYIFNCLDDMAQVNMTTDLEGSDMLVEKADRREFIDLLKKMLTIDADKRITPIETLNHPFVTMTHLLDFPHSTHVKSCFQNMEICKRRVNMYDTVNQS
Text: as §1, §4, §5, §7

[10] = ERK1, 5 μM ATP, read-out: residual kinase activity
[11] = YES1, read-out: residual kinase activity
[12] = P38b MAPK, read-out: residual kinase activity
[13] = SGK1, read-out: residual kinase activity
[14] = PAK6, read-out: residual kinase activity
[15] = MNK2, 50 μM ATP, read-out: residual kinase activity
[16] = MNK1, read-out: residual kinase activity
[17] = HIPK2, read-out: residual kinase activity
[18] = read-out: residual kinase activity ERK1
[19] = read-out: residual kinase activity YES1
[20] = read-out: residual kinase activity P38b MAPK
[21] = read-out: residual kinase activity SGK1
[22] = read-out: residual kinase activity PAK6
[23] = read-out: residual kinase activity MNK2
[24] = read-out: residual kinase activity MNK1
[25] = read-out: residual kinase activity HIPK2

## O=C(NCCCNc1nc(Nc2cccc(N3CCCC3=O)c2)ncc1C1CC1)c1cccs1 [Example 47, Thiophene-2-carboxylic acid (3-{5-cyclopropyl-2-[3-(2-oxo-pyrrolidin-1-yl)-phenylamino]-pyrimidin-4-ylamino}-propyl)-amide. Hydrochloride salt]
[1]; [10]
  remaining activity at 1 µM: 89%
  remaining activity at 10 µM: 81%
[2]; [11]
  remaining activity at 1 µM: 94%
  remaining activity at 10 µM: 74%
[3]; [12]
  remaining activity at 1 µM: 99%
  remaining activity at 10 µM: 90%
[4]; [13]
  remaining activity at 1 µM: 71%
  remaining activity at 10 µM: 59%
[5]; [14]
  remaining activity at 1 µM: 77%
  remaining activity at 10 µM: 85%
[6]; [15]
  remaining activity at 1 µM: 36%
  remaining activity at 10 µM: 16%
[7]; [16]
  remaining activity at 1 µM: 93%
  remaining activity at 10 µM: 73%
[8]; 1 μM compound
  residual kinase activity: 105%
[8]; 10 μM compound
  residual kinase activity: 85%
[9]; [17]
  remaining activity at 1 µM: 88%
  remaining activity at 10 µM: 67%

## O=C(NCCCNc1nc(Nc2cccnc2)ncc1C1CC1)c1cccs1 [Example 50, Thiophene-2-carboxylic acid {3-[5-cyclopropyl-2-(pyridin-3-ylamino)-pyrimidin-4-ylamino]-propyl}-amide]
[1]; [10]
  remaining activity at 1 µM: 99%
  remaining activity at 10 µM: 65%
[2]; [11]
  remaining activity at 1 µM: 82%
  remaining activity at 10 µM: 29%
[3]; [12]
  remaining activity at 1 µM: 99%
  remaining activity at 10 µM: 89%
[4]; [13]
  remaining activity at 1 µM: 86%
  remaining activity at 10 µM: 57%
[5]; [14]
  remaining activity at 1 µM: 78%
  remaining activity at 10 µM: 50%
[6]; [15]
  remaining activity at 1 µM: 56%
  remaining activity at 10 µM: 21%
[7]; [16]
  remaining activity at 1 µM: 94%
  remaining activity at 10 µM: 81%
[8]; 1 μM compound
  residual kinase activity: 109%
[8]; 10 μM compound
  residual kinase activity: 109%
[9]; [17]
  remaining activity at 1 µM: 83%
  remaining activity at 10 µM: 54%

## O=C(NCCCNc1nc(Nc2cccc(F)c2)ncc1Br)C1CCC1 [Compound A, cyclobutanecarboxylic acid {3-[5-bromo-2-(3-fluoro-phenylamino)-pyrimidin-4-ylamino]-propyl}-amide, reference compound]
[1]; [18]
  remaining activity at 10 µM: 7%
[1]
  residual kinase activity ERK1: 28%
[2]; [19]
  remaining activity at 10 µM: 8%
[2]
  residual kinase activity YES1: 36%
[3]; [20]
  remaining activity at 10 µM: 80%
[3]
  residual kinase activity P38b MAPK: 96%
[4]; [21]
  remaining activity at 10 µM: 18%
[4]
  residual kinase activity SGK1: 59%
[5]; [22]
  remaining activity at 10 µM: 14%
[5]
  residual kinase activity PAK6: 45%
[6]; [23]
  remaining activity at 10 µM: 7%
[6]
  residual kinase activity MNK2: 6%
[7]; [24]
  remaining activity at 10 µM: 15%
[7]
  residual kinase activity MNK1: 49%
[8]; 10 μM compound
  residual kinase activity IR-HIS: 69%
[8]; 1 μm compound
  residual kinase activity IR-HIS: 91%
[9]; [25]
  remaining activity at 10 µM: 12%
[9]
  residual kinase activity HIPK2: 58%

## O=C(NCCCNc1nc(Nc2cccc(F)c2)ncc1C1CC1)C1CCC1 [Example 23, Cyclobutanecarboxylic acid {3-[5-cyclopropyl-2-(3-fluoro-phenylamino)-pyrimidin-4-ylamino]-propyl}-amide]
[1]; [18]
  remaining activity at 10 µM: 75%
[1]
  residual kinase activity ERK1: 88%
[1]; [10]
  remaining activity at 1 µM: 88%
  remaining activity at 10 µM: 75%
[2]; [19]
  remaining activity at 10 µM: 22%
[2]
  residual kinase activity YES1: 77%
[2]; [11]
  remaining activity at 1 µM: 77%
  remaining activity at 10 µM: 22%
[3]; [20]
  remaining activity at 10 µM: 92%
[3]
  residual kinase activity P38b MAPK: 86%
[3]; [12]
  remaining activity at 1 µM: 86%
  remaining activity at 10 µM: 92%
[4]; [21]
  remaining activity at 10 µM: 64%
[4]
  residual kinase activity SGK1: 100%
[4]; [13]
  remaining activity at 1 µM: 100%
  remaining activity at 10 µM: 64%
[5]; [22]
  remaining activity at 10 µM: 50%
[5]
  residual kinase activity PAK6: 82%
[5]; [14]
  remaining activity at 1 µM: 82%
  remaining activity at 10 µM: 50%
[6]; [23]
  remaining activity at 10 µM: 10%
[6]
  residual kinase activity MNK2: 39%
[6]; [15]
  remaining activity at 1 µM: 39%
  remaining activity at 10 µM: 10%
[7]; [24]
  remaining activity at 10 µM: 62%
[7]
  residual kinase activity MNK1: 85%
[7]; [16]
  remaining activity at 1 µM: 85%
  remaining activity at 10 µM: 62%
[8]; 10 μM compound
  residual kinase activity IR-HIS: 86%
  residual kinase activity: 86%
[8]; 1 μm compound
  residual kinase activity IR-HIS: 105%
[8]; 1 μM compound
  residual kinase activity: 105%
[9]; [25]
  remaining activity at 10 µM: 26%
[9]
  residual kinase activity HIPK2: 59%
[9]; [17]
  remaining activity at 1 µM: 59%
  remaining activity at 10 µM: 26%
